Assay results: the NIST ThermoML archive (doi:10.1021/je900218z)
Where “and” joins values, the source holds several entries; their conditions need not be identical. Equal entries are not always repeated.

Assay: mn = molality of the nth substance listed, in mol/kg
Details: 298.15 K, 101 kPa, Liquid

O=S(=O)([O-])[O-].[Na+].[Na+] [sodium sulfate] + O
Details | mass density
m1 = 0.2 | 1021.93 kg/m3
m1 = 0.4999 | 1057.3 kg/m3 and 1057.32 kg/m3 and 1057.31 kg/m3
m1 = 0.6999 | 1079.92 kg/m3 and 1079.94 kg/m3 and 1079.93 kg/m3
m1 = 0.9868 | 1111.12 kg/m3
m1 = 0.9979 | 1112.28 kg/m3
m1 = 0.9999 | 1112.48 kg/m3
m1 = 1.196 | 1133.04 kg/m3
m1 = 1.2 | 1133.46 kg/m3 and 1133.45 kg/m3
